Converted amounts (≈) assume the structure as drawn.
Tests used:
[1] = test system: Staphylococcus epidermidis; assay: Antibacterial activity against methicillin-resistant Staphylococcus epidermidis MRSE17-6 measured by liquid dilution method; format: functional
[2] = test system: Staphylococcus aureus; assay: Antibacterial activity against methicillin-resistant Staphylococcus aureus ATCC 33591 measured by liquid dilution method; format: functional
[3] = test system: Staphylococcus epidermidis; assay: Antibacterial activity against methicillin-sensitive Staphylococcus epidermidis MSSE17-1 measured by liquid dilution method; format: functional
[4] = test system: Staphylococcus aureus; assay: Antibacterial activity against methicillin-resistant Staphylococcus aureus MRSA17-1 measured by liquid dilution method; format: functional
[5] = test system: Staphylococcus aureus; assay: Antibacterial activity against methicillin-resistant Staphylococcus aureus ATCC 43300 measured by liquid dilution method; format: functional
[6] = test system: Staphylococcus epidermidis; assay: Antibacterial activity against methicillin-sensitive Staphylococcus epidermidis MSSE17-2 measured by liquid dilution method; format: functional
[7] = test system: Staphylococcus epidermidis; assay: Antibacterial activity against methicillin-sensitive Staphylococcus epidermidis MSSE17-3 measured by liquid dilution method; format: functional
[8] = test system: Staphylococcus aureus; assay: Antibacterial activity against vancomycin-intermediate Staphylococcus aureus ATCC 700699 measured by liquid dilution method; format: functional
[9] = test system: Staphylococcus aureus; assay: Antibacterial activity against methicillin-resistant Staphylococcus aureus MRSA17-2 measured by liquid dilution method; format: functional
[10] = test system: Staphylococcus epidermidis; assay: Antibacterial activity against methicillin-resistant Staphylococcus epidermidis MRSE17-1 measured by liquid dilution method; format: functional
[11] = test system: Enterococcus faecium; assay: Antibacterial activity against Enterococcus faecium EFM17-1 measured by liquid dilution method; format: functional
[12] = test system: Staphylococcus aureus; assay: Antibacterial activity against methicillin-resistant Staphylococcus aureus MRSA17-6 measured by liquid dilution method; format: functional
[13] = test system: Enterococcus faecium; assay: Antibacterial activity against Enterococcus faecium EFM17-2 measured by liquid dilution method; format: functional
[14] = test system: Staphylococcus aureus; assay: Antibacterial activity against methicillin-sensitive Staphylococcus aureus MSSA17-2 measured by liquid dilution method; format: functional
[15] = test system: Staphylococcus aureus; assay: Antibacterial activity against methicillin-resistant Staphylococcus aureus MRSA17-3 measured by liquid dilution method; format: functional
[16] = test system: Staphylococcus epidermidis; assay: Antibacterial activity against methicillin-resistant Staphylococcus epidermidis MRSE17-3 measured by liquid dilution method; format: functional
[17] = test system: Staphylococcus aureus; assay: Antibacterial activity against methicillin-sensitive Staphylococcus aureus MSSA17-1 measured by liquid dilution method; format: functional
[18] = test system: Staphylococcus aureus; assay: Antibacterial activity against methicillin-resistant Staphylococcus aureus MRSA17-5 measured by liquid dilution method; format: functional
[19] = test system: Enterococcus faecalis; assay: Antibacterial activity against Enterococcus faecalis ATCC 29212 measured by liquid dilution method; format: functional
[20] = test system: Staphylococcus aureus; assay: Antibacterial activity against Staphylococcus aureus ATCC 29213 measured by liquid dilution method; format: functional
[21] = test system: Enterococcus faecalis; assay: Antibacterial activity against Enterococcus faecalis EFA17-1 measured by liquid dilution method; format: functional
[22] = test system: Staphylococcus aureus; assay: Antibacterial activity against methicillin-sensitive Staphylococcus aureus MSSA17-3 measured by liquid dilution method; format: functional
[23] = test system: Staphylococcus aureus; assay: Antibacterial activity against vancomycin-intermediate Staphylococcus aureus ATCC 700788 measured by liquid dilution method; format: functional
[24] = test system: Staphylococcus epidermidis; assay: Antibacterial activity against methicillin-resistant Staphylococcus epidermidis MRSE17-4 measured by liquid dilution method; format: functional
[25] = test system: Staphylococcus epidermidis; assay: Antibacterial activity against methicillin-resistant Staphylococcus epidermidis MRSE17-2 measured by liquid dilution method; format: functional
[26] = Plasma protein binding in CD-1 mouse plasma incubated for 4 hrs and assessed as unbound fraction at 2 uM measured by LC/MS/MS analysis; format: ADME, cell-free
[27] = Plasma protein binding in CD-1 mouse plasma incubated for 4 hrs at 2 uM measured by LC/MS/MS analysis; format: ADME, cell-free; settings: read-out: PPB (converted)

Structure (SMILES)	MIC [1]	MIC [2]	MIC [3]	MIC [4]	MIC [5]	MIC [6]	MIC [7]	MIC [8]	MIC [9]	MIC [10]	MIC [11]	MIC [12]	MIC [13]	MIC [14]	MIC [15]	MIC [16]	MIC [17]	MIC [18]	MIC [19]	MIC [20]	further results
CNC1=NC(=O)[C@H]([C@H](C)c2c[nH]c3cc(F)ccc23)O1	16 µg/mL (≈ 58.1 µM)	16 µg/mL (≈ 58.1 µM)	8 µg/mL (≈ 29.1 µM)	8 µg/mL (≈ 29.1 µM)	8 µg/mL (≈ 29.1 µM)	8 µg/mL (≈ 29.1 µM)	8 µg/mL (≈ 29.1 µM)	4 µg/mL (≈ 14.5 µM)	8 µg/mL (≈ 29.1 µM)	16 µg/mL (≈ 58.1 µM)	> 128 µg/mL	8 µg/mL (≈ 29.1 µM)	> 128 µg/mL	16 µg/mL (≈ 58.1 µM)	8 µg/mL (≈ 29.1 µM)	4 µg/mL (≈ 14.5 µM)	16 µg/mL (≈ 58.1 µM)	16 µg/mL (≈ 58.1 µM)	> 128 µg/mL	16 µg/mL (≈ 58.1 µM)	MIC [21]: > 128 µg/mL; MIC [22]: 8 µg/mL (≈ 29.1 µM); MIC [23]: 8 µg/mL (≈ 29.1 µM); MIC [24]: 16 µg/mL (≈ 58.1 µM); MIC [25]: 16 µg/mL (≈ 58.1 µM)
CNC1=NC(=O)[C@H]([C@H](C)c2c[nH]c3cccc(F)c23)O1	1 µg/mL (≈ 3.63 µM)	1 µg/mL (≈ 3.63 µM)	0.5 µg/mL (≈ 1.82 µM)	0.5 µg/mL (≈ 1.82 µM)	1 µg/mL (≈ 3.63 µM)	1 µg/mL (≈ 3.63 µM)	1 µg/mL (≈ 3.63 µM)	0.5 µg/mL (≈ 1.82 µM)	1 µg/mL (≈ 3.63 µM)	2 µg/mL (≈ 7.27 µM)	> 128 µg/mL	0.5 µg/mL (≈ 1.82 µM)	> 128 µg/mL	1 µg/mL (≈ 3.63 µM)	0.5 µg/mL (≈ 1.82 µM)	0.5 µg/mL (≈ 1.82 µM)	1 µg/mL (≈ 3.63 µM)	1 µg/mL (≈ 3.63 µM)	> 128 µg/mL	1 µg/mL (≈ 3.63 µM)	fraction unbound at 4 h, 2 µM [26]: 0.2; fraction unbound at 4 h, 2 µM [27]: 0.2; MIC [21]: > 128 µg/mL; MIC [22]: 0.5 µg/mL (≈ 1.82 µM); MIC [23]: 0.5 µg/mL (≈ 1.82 µM); MIC [24]: 1 µg/mL (≈ 3.63 µM); MIC [25]: 1 µg/mL (≈ 3.63 µM)
CNC1=NC(=O)[C@@H]([C@@H](C)c2c[nH]c3cccc(F)c23)O1	> 128 µg/mL	> 128 µg/mL	> 128 µg/mL	> 128 µg/mL	> 128 µg/mL	> 128 µg/mL	> 128 µg/mL	> 128 µg/mL	> 128 µg/mL	> 128 µg/mL	> 128 µg/mL	> 128 µg/mL	> 128 µg/mL	> 128 µg/mL	> 128 µg/mL	> 128 µg/mL	> 128 µg/mL	> 128 µg/mL	> 128 µg/mL	> 128 µg/mL	MIC [21]: > 128 µg/mL; MIC [22]: > 128 µg/mL; MIC [23]: > 128 µg/mL; MIC [24]: > 128 µg/mL; MIC [25]: > 128 µg/mL

Source: ChEMBL document CHEMBL5104172, “Design, synthesis, and antibacterial activity of derivatives of Tryptophanyl-tRNA synthetase inhibitor indolmycin” (Eur J Med Chem, 2022)
